Structures can show the parent of a compound that is named as a salt. Where two headings read alike, the source gives them in different places.
Legend:
[1] = Bidirectional transepithelial transport across Caco-2 monolayers (Papp, efflux ratio), with and without MK571; details: human; for Papp A→B at 300 μmol/L / Papp at 300 μmol/L / Papp B→A at 300 μmol/L: Caco-2, pH 6
Protocol: (§1) For the transport experiments, the cells were seeded in 24-mm i.d Transwell® inserts (polycarbonate membrane, 0.4 μM pore size, Corning Costar Co., (Corning, NY, USA) in six-well plates at a density of 4 × 10^5 cells/well, and were cultured for 21 days prior to the transport experiments. To monitor the integrity of the cell layers, transepithelial electrical resistance (TEER) values were measured using a Millicell-ERS Voltohmmeter (Millipore Corp, Bedford, MA, USA). TEER values above 513.7 Ω·cm^2 in the culture medium were selected for the transport experiment.
(§2) For the transport of GTCs across the Caco-2 monolayers, the inserts were gently washed twice and were equilibrated at 37 °C for 30 min with 0.01 M modified phosphate buffer saline (PBS+), which was supplemented with 0.45 M calcium chloride and 0.4 M potassium chloride, and adjusted to pH 6.0 [7]. In the transepithelial transport, GTCs at different concentrations in PBS+ (DMSO less than 0.5%) were loaded into the apical (AP) or basolateral (BL) side, the so-called donor side. The plate was then incubated at 37 °C. At designated time intervals, aliquots of 0.5 mL of sample were taken from the other side, the so-called receiver side, and then replaced with an equal volume of PBS+. After that, the samples were dried with a CoolSafe freeze dryer (LaboGene ApS, Bjarkesvej, Denmark) at −110 °C, and stored at −20 °C until analysis.
(§3) For the inhibition of transport, MK571 was used at a concentration of 93.11 μmol/L (50 μg/mL with a DMSO less than 0.3%). The cells were preincubated with the inhibitor for 30 min. Then, the bi-directional transport studies of the GTCs in the presence of MK-571 at both the donor and receiver side were performed as for the transport method described above.
(§4) The transport samples were analyzed by an Agilent LC 1260 system (Agilent Technologies, CA, USA) after redissolving with 50 μL methyl into vial inserts (100 uL; Agilent Technologies, CA, USA). The separation was performed on an Octadecylsilyl (ODS) reversed-phase column (4.6 mm i.d. × 250 mm, 4.5 μm; TC-C18, Agilent Technologies) using a diode array detector (DAD) at 278 nm. The mobile phase consisted of 15% methanol and 0.1% formic acid at a flow-rate of 0.8 mL/min.
(§5) The values were expressed as the mean ± standard deviation (SD) of three replications. The statistical significances of the difference between the various groups were analyzed using the Fisher’s least significant difference (LSD) procedure. For comparison between the two groups, the Student’s t-test was used. The differences were considered to be significant when p < 0.05.

MRP2 [2] = test: MRP2 protein level in Caco-2 cells (Western blot); assay type: cell-based, human; details: 300 μmol/L, 2 h
Protocol: After being washed by precooled PBS buffer three times, the total lysate was prepared on ice from 5 to 8 × 10^6 cells by lysis in a 150 μL Radio Immunoprecipitation Assay (RIPA) Lysis buffer containing 1% (v/v) Phenylmethanesulfonyl fluoride (PMSF) (Beyotime, Shanghai, China). The lysates were centrifuged at 13,000 rpm for 20 min at 4 °C, after mixing uniformity. The protein-containing supernatant was collected and the protein content was determined using the Bio-Rad protein assay. Western blotting was performed according to standard techniques, as previously described. In each lane of a Bio-Rad minigel system, 10 μg of protein was loaded. For the detection of BCRP, P-glycoprotein (MDR1), and MRP2, the following polyclonal antibodies were used: rabbit anti-BCRP (1:1000), rabbit anti-P-glycoprotein (1:1000), and rabbit anti-MRP2 (1:600). Horseradish peroxidase (HRP)-conjugated goat anti-rabbit (1:3000) were used as the secondary antibodies. As a loading control, the expression of β-actin was determined using an antibody against β-actin (1:40,000). Enhanced chemiluminescence (ECL) solutions were used for chemiluminescence.

MRP2 [3] = test: MRP2 mRNA level in Caco-2 cells (qRT-PCR); assay type: cell-based, human; details: 300 μmol/L, 2 h
Protocol: The Caco-2 cells were seeded in six-well plates (Corning Costar Co., NY, USA) at a density of 4 × 10^4 cells/cm^2, and were cultured for 21 days. After incubation with each tea catechins (300 μmol/L in full culture medium) for 2 h or 24 h, the total RNA from the Caco-2 cells were isolated with a Total RNA Kit (Aidlab, Beijing, China). First-strand cDNA was synthesized using a cDNA synthesis Kit (Aidlab, Beijing, China). The gene expression of MRP2 was examined by quantitative real-time PCR with the SYBR Green qPCR Mix (Aidlab, Beijing, China) in an ABI7500 Real-Time System (Applied Biosystems, USA). The reaction was carried out in a 10 μL RT-reaction mixture containing 5 μL 2 × SYBR Green qPCR Mix, 0.2 μL forward and reverse primers (10 μmol/μL), and water to a final volume of 10 μL, and was performed under the following cycling conditions: an initial denaturing step of 10 min at 95 °C, followed by 40 cycles consisting of 5 s at 95 °C and 34 s at 60 °C.
All of the qPCR experiments were repeated in three biologicals. The data were analyzed using the 2-ΔΔCT method. All of the primers were synthesized by Sangon Biotech (Shanghai, China), as previously described, and their sequences are depicted in Table 3.

in vitro = details: human; for Papp A→B at 300 μmol/L / Papp B→A at 300 μmol/L / Papp at 300 μmol/L: Caco-2, pH 6; for efflux ratio: Caco-2, pH 6, Efflux ratio in the absence of MK571
Protocol: as §1, §2, §3, §4, §5

BCRP [4] = test: BCRP mRNA level in Caco-2 cells (qRT-PCR); assay type: cell-based, human; details: 2 h
Protocol: All of the qPCR experiments were repeated in three biologicals. The data were analyzed using the 2-ΔΔCT method [39]. All of the primers were synthesized by Sangon Biotech (Shanghai, China), as previously described [40], and their sequences are depicted in Table 3.

[5] = parameters: method as in PMID 10909265; details: rats, cited from earlier work
[6] = cited from earlier work
P-glycoprotein = system: P-glycoprotein; parameters: method as in PMID 15285844; details: KB-C2 cells; cited from earlier work
BCRP [7] = system: BCRP; parameters: method as in PMID 20149610; details: MCF-7 cell line, 100 μg/mL; cited from earlier work
MRP2 [8] = system: MRP2; parameters: method as in PMID 23146761; details: rats, 24 h; cited from earlier work
Caco-2 cell monolayers = test: Bidirectional transepithelial transport across Caco-2 monolayers (Papp, efflux ratio), with and without MK571; details: Caco-2 monolayers, MK571 93.11 μmol/L
Protocol: as §1, §2, §3, §4, §5

[9] = Caco-2, pH 6, Efflux ratio in the absence of MK571, Caco-2 monolayers, no MK571
[10] = Caco-2, pH 6, with MK571 93.11 μmol/L (50 μg/mL), Efflux ratio in the presence of MK571, Caco-2 monolayers, MK571 93.11 μmol/L
[11] = rats, intragastric administration

SMILES | Papp A→B at 300 μmol/L [1] [×10⁻⁶ cm/s] | efflux ratio [1, 9] | efflux ratio [1, 10] | Increase of protein level of MRP2 (MRP2 [2]) [%] | Increase of mRNA levels of MRP2 (MRP2 [3]) [%] | Papp A→B at 300 μmol/L (in vitro) [×10⁻⁶ cm/s] | Papp B→A at 300 μmol/L (in vitro) [×10⁻⁶ cm/s] | efflux ratio (in vitro) | BCRP gene expression (BCRP [4]) | Papp B→A at 300 μmol/L [1] [×10⁻⁶ cm/s] | Cellular accumulation of rhodamine-123 and daunorubicin (P-glycoprotein) | further results
Oc1cc(O)c2c(c1)O[C@H](c1ccc(O)c(O)c1)[C@@H](O)C2 [C, (+)-catechin] | 0.156 ± 0.011 | 16.7 | 1.34 | 58.33 | 14.05 |  |  |  |  |  |  | Papp at 300 μmol/L [1]: < 1 ×10⁻⁶ cm/s
O=C(O[C@@H]1Cc2c(O)cc(O)cc2O[C@H]1c1ccc(O)c(O)c1)c1cc(O)c(O)c(O)c1 [CG, (−)-catechin gallate] |  |  |  | 132.00 | 123.09 | 0.139 ± 0.012 | 0.651 ± 0.042 | 4.68 | upregulation |  |  | Papp at 300 μmol/L (in vitro): < 1 ×10⁻⁶ cm/s
Oc1cc(O)c2c(c1)O[C@H](c1ccc(O)c(O)c1)[C@H](O)C2 [EC, (−)-epicatechin] | 0.152 ± 0.017 | 11.2 | 1.06 | 60.00 | 41.67 |  |  |  | upregulation | 1.69 ± 0.163 |  | Plasma concentration following oral administration ([5]; 250 mg/kg): 53 µM; Bioavailability [6, 11]: 31%
O=C(O[C@@H]1Cc2c(O)cc(O)cc2O[C@@H]1c1ccc(O)c(O)c1)c1cc(O)c(O)c(O)c1 [ECG, (−)-epicatechin gallate] |  |  |  | 24.67 | 85.18 | 0.138 ± 0.009 | 0.387 ± 0.031 | 2.82 | upregulation |  | increase the cellular accumulation | Plasma concentration following oral administration ([5]; 650 mg/kg): 33.5 µM
Oc1cc(O)c2c(c1)O[C@H](c1cc(O)c(O)c(O)c1)[C@H](O)C2 [EGC, (−)-epigallocatechin] |  |  |  | 35.67 | 103.58 | 0.246 ± 0.01 | 0.674 ± 0.062 | 2.74 |  |  | increase the cellular accumulation | Bioavailability ([6]; rat, in vivo, po): 13.7%
O=C(O[C@@H]1Cc2c(O)cc(O)cc2O[C@@H]1c1cc(O)c(O)c(O)c1)c1cc(O)c(O)c(O)c1 [EGCG, (−)-epigallocatechin gallate] | 0.093 ± 0.008 | 2.75 | 1.05 | 42.67 | 89.57 |  |  |  | upregulation | 0.257 ± 0.01 | increase the cellular accumulation | Plasma concentration following oral administration ([5]; 2500 mg/kg): 244.3 µM; mRNA transcription and protein level of BCRP (BCRP [7]): not changed; Protein level of MRP2 on the hepatocyte canalicular membrane (MRP2 [8]): significantly decreased; Bioavailability [6, 11]: 0.1%
Oc1cc(O)c2c(c1)O[C@@H](c1cc(O)c(O)c(O)c1)[C@H](O)C2 [GC, (+)-gallocatechin] |  |  |  | 37.67 | 119.33 | 0.264 ± 0.021 | 0.875 ± 0.028 | 3.32 |  |  |  | Papp at 300 μmol/L (in vitro): < 1 ×10⁻⁶ cm/s
O=C(O[C@@H]1Cc2c(O)cc(O)cc2O[C@H]1c1cc(O)c(O)c(O)c1)c1cc(O)c(O)c(O)c1 [GCG, (−)-gallocatechin gallate] | 0.103 ± 0.021 | 2.84 | 1.24 | 20.67 | 133.15 |  |  |  | upregulation | 0.293 ± 0.013 |  | Papp at 300 μmol/L [1]: < 1 ×10⁻⁶ cm/s
CN(C)C(=O)CCSC(SCCC(=O)O)c1cccc(/C=C/c2ccc3ccc(Cl)cc3n2)c1 (stereo not shown) [MK-571, MK-571 sodium salt hydrate, reference compound] |  |  |  |  |  |  |  |  |  |  |  | Effect of MK-571 on the efflux of eight catechins (Caco-2 cell monolayers): significantly inhibit
